Values of other authors as cited in the PKSmart pharmacokinetics tables (Seal et al. 2025).

How the values were obtained:
[1] = Lombardo et al. 2013, J Clin Pharmacol 53:178, doi 10.1177/0091270012440282; details: for Vd / clearance: in vivo, iv; for fraction unbound: plasma
[2] = Lombardo, Berellini, Obach 2018, Drug Metab Dispos 46:1466, doi 10.1124/dmd.118.082966; details: human; for MRT / Vd / clearance / half-life: in vivo, iv; for fraction unbound: plasma

SMILES	Vd ([1]; rat)	clearance ([1]; rat)	MRT [2]	Vd [2]	clearance [2]	half-life [2]	fraction unbound [2]	Vd ([1]; dog)	clearance ([1]; dog)	Vd ([1]; monkey)	clearance ([1]; monkey)	fraction unbound ([1]; rat)	fraction unbound ([1]; dog)	fraction unbound ([1]; monkey)
COc1ccnc(C[S+](O)c2nc3ccc(OC(F)F)cc3[n-]2)c1OC (stereo unspecified)	0.35 L/kg	8.5 mL/min/kg	1.3 h	0.17 L/kg	2.2 mL/min/kg	1.9 h	0.02	–	–	–	–	–	–	–
CCN(CC)C(=O)/C(C#N)=C/c1cc(O)c(O)c([N+](=O)[O-])c1	0.24 L/kg	10.8 mL/min/kg	0.38 h	0.27 L/kg	12 mL/min/kg	–	–	–	–	–	–	–	–	–
Cc1nnc2n1-c1sc(Br)cc1C(c1ccccc1Cl)=NC2	3 L/kg	23 mL/min/kg	6 h	0.75 L/kg	2 mL/min/kg	4.8 h	0.092	6.1 L/kg	11 mL/min/kg	6.5 L/kg	13 mL/min/kg	0.22	–	–
CCn1cc(C(=O)O)c(=O)c2cc(F)c(N3CCNCC3)nc21	1.8 L/kg	42.7 mL/min/kg	6.2 h	2 L/kg	5.4 mL/min/kg	5.1 h	0.8	–	–	–	–	–	–	–
CN1CC[C@]23c4c5ccc(O)c4OC2C(=O)CC[C@H]3[C@H]1C5 (stereo partly specified)	–	–	–	–	–	2.3 h	–	5.8 L/kg	71 mL/min/kg	–	–	–	–	–
CC(=O)[C@]1(O)Cc2c(O)c3c(c(O)c2[C@@H](O[C@H]2C[C@H](N)[C@H](O)[C@H](C)O2)C1)C(=O)c1ccccc1C3=O	36.5 L/kg	78.5 mL/min/kg	26 h	38 L/kg	24 mL/min/kg	16 h	0.076	34.5 L/kg	–	–	–	–	–	–
C[C@@H]1O[C@@H]1P(=O)(O)O	–	–	2.7 h	0.32 L/kg	2 mL/min/kg	1.9 h	–	0.77 L/kg	6.9 mL/min/kg	–	–	–	1	–
OC(Cn1cncn1)(Cn1cncn1)c1ccc(F)cc1F	0.97 L/kg	4.2 mL/min/kg	40 h	0.75 L/kg	0.31 mL/min/kg	30 h	–	0.7 L/kg	0.65 mL/min/kg	–	–	0.9	–	–
O=c1[nH]cc(F)c(=O)[nH]1	0.25 L/kg	33 mL/min/kg	–	–	–	–	0.64	–	–	–	–	0.69	–	–
NCCC(O)C(=O)N[C@@H]1C[C@H](N)[C@@H](O[C@H]2O[C@H](CN)[C@@H](O)[C@H](O)[C@H]2O)[C@H](O)[C@H]1O[C@H]1O[C@H](CO)[C@@H](O)[C@H](N)[C@H]1O (stereo partly specified)	0.16 L/kg	5.4 mL/min/kg	2.4 h	0.16 L/kg	1.1 mL/min/kg	2.4 h	0.88	0.2 L/kg	3.5 mL/min/kg	–	–	–	–	–
CCCCN1CCCCC1C(=O)Nc1c(C)cccc1C (stereo unspecified)	2.4 L/kg	76 mL/min/kg	2.12 h	0.665 L/kg	6.5 mL/min/kg	1.95 h	0.043	0.7 L/kg	32 mL/min/kg	0.66 L/kg	10 mL/min/kg	0.23	0.11	0.051
CN(C)CCCN1c2ccccc2CCc2ccc(Cl)cc21	–	–	26 h	13 L/kg	8.2 mL/min/kg	–	–	3.7 L/kg	23.3 mL/min/kg	–	–	–	0.01	–
CC(=N)N1CC[C@H](SC2=C(C(=O)O)N3C(=O)C([C@@H](C)O)[C@H]3C2)C1 (stereo partly specified)	0.2 L/kg	27.7 mL/min/kg	1.2 h	0.19 L/kg	2.6 mL/min/kg	0.96 h	–	0.21 L/kg	4.85 mL/min/kg	0.3 L/kg	6.52 mL/min/kg	0.95	0.95	0.93
Cc1ccc(C(=O)c2cc(O)c(O)c([N+](=O)[O-])c2)cc1	0.21 L/kg	8.8 mL/min/kg	1.1 h	0.12 L/kg	1.9 mL/min/kg	1.1 h	0.0012	0.16 L/kg	1.9 mL/min/kg	–	–	–	–	–
O=c1n(CCCN2CCN(c3cccc(Cl)c3)CC2)nc2ccccn12	1.76 L/kg	51.8 mL/min/kg	6.2 h	0.52 L/kg	1.4 mL/min/kg	7.3 h	0.08	–	–	–	–	0.12	–	–
